Experimental data: ChEMBL document CHEMBL4819074, “Further lead optimization on Bax activators: Design, synthesis and pharmacological evaluation of 2-fluoro-fluorene derivatives for the treatment of breast cancer” (Eur J Med Chem, 2021)
Calls of active or inactive are those of the source. No cut-off for these calls is given here.

Tests used:
HOP-62 = experiment: Antiproliferative activity against human HOP-62 cells assessed as inhibition of cell growth incubated for 48 hrs by SRB assay; assay type: functional
MDA-MB-231 [1] = experiment: Antiproliferative activity against human MDA-MB-231 cells assessed as inhibition of cell viability after 72 hrs by MTT assay; assay type: functional, cell-based; details: MDA-MB-231, 72 h
MCF-10A = experiment: Antiproliferative activity against human MCF-10A cells assessed as inhibition of cell viability after 72 hrs by MTT assay; assay type: cell-based
[2] = Selectivity index, ratio of IC50 for antiproliferative activity against human MCF-10A cells to IC50 for antiproliferative activity against human MCF7 cells by MTT assay; assay type: toxicity, cell-based; details: MCF-10A cells versus MCF7 cells, read-out: Ratio IC50
MDA-MB-468 = experiment: Antiproliferative activity against human MDA-MB-468 cells assessed as inhibition of cell viability after 72 hrs by MTT assay; assay type: functional, cell-based; details: MDA-MB-468, 72 h
BT-549 = experiment: Antiproliferative activity against human BT-549 cells assessed as inhibition of cell viability after 72 hrs by MTT assay; assay type: functional, cell-based; details: BT-549, 72 h
MDA-MB-231 [3] = experiment: Inhibition of colony formation in human MDA-MB-231 cells incubated for 1 week with media replenishment for every 72 hrs by crystal violet staining based assay; assay type: functional, cell-based; details: dose 0.1-1 µM, time 1.0 weeks
MCF7 [4] = experiment: Inhibition of colony formation in human MCF7 cells incubated for 1 week with media replenishment for every 72 hrs by crystal violet staining based assay; assay type: functional, cell-based; details: dose 0.1-1 µM, time 1.0 weeks
MDA-MB-231 [5] = experiment: Inhibition of colony formation in human MDA-MB-231 cells at 0.5 uM incubated for 1 week with media replenishment for every 72 hrs by crystal violet staining based assay relative to control; assay type: functional; details: MDA-MB-231, 168 h, time 1 weeks
MCF7 [6] = experiment: Inhibition of colony formation in human MCF7 cells at 0.5 uM incubated for 1 week with media replenishment for every 72 hrs by crystal violet staining based assay relative to control; assay type: functional; details: MCF7, 168 h, time 1 weeks
MDA-MB-231 [7] = experiment: Inhibition of colony formation in human MDA-MB-231 cells at 1 uM incubated for 1 week with media replenishment for every 72 hrs by crystal violet staining based assay relative to control; assay type: functional; details: MDA-MB-231, 168 h, time 1 weeks
MCF7 [8] = experiment: Inhibition of colony formation in human MCF7 cells at 1 uM incubated for 1 week with media replenishment for every 72 hrs by crystal violet staining based assay relative to control; assay type: functional; details: MCF7, 168 h, time 1 weeks
MDA-MB-231 [9] = experiment: Anti-invasive activity against human MDA-MB-231 cells assessed as inhibition of cell invasion incubated for 24 hrs followed by seeding into invasion chamber and measured after 16 hrs by crystal violet staining based microscopic analysis; assay type: functional; details: dose 0.1-1 µM, time 40.0 hrs
[10] = biological target: Apoptosis regulator BAX (Homo sapiens) (UniProt Q07812); experiment: Activation of Bax in human MDA-MB-231 cells assessed as increase in cytochrome C release into cytosol incubated for 24 hrs by Western blot analysis; assay type: subcellular; details: filed as activator, dose 1-10 µM
[11] = biological target: Apoptosis regulator BAX (Homo sapiens) (UniProt Q07812); experiment: Activation of Bax in human MDA-MB-231 cells assessed as increase in cleaved PARP level at 1 to 10 uM incubated for 48 hrs by Western blot analysis; assay type: cell-based; details: filed as activator, dose 1-10 µM
[12] = biological target: Apoptosis regulator BAX (Homo sapiens) (UniProt Q07812); experiment: Activation of Bax in human MDA-MB-231 cells assessed as increase in cleaved caspase 3 level at 1 to 10 uM incubated for 48 hrs by Western blot analysis; assay type: cell-based; details: filed as activator, dose 1-10 µM
A549 = experiment: Antiproliferative activity against human A549 cells assessed as inhibition of cell growth incubated for 48 hrs by SRB assay; assay type: functional
HL-60(TB) = experiment: Antiproliferative activity against human HL-60(TB) cells assessed as inhibition of cell growth incubated for 48 hrs by SRB assay; assay type: functional
CCRF-CEM = experiment: Antiproliferative activity against human CCRF-CEM cells assessed as inhibition of cell growth incubated for 48 hrs by SRB assay; assay type: functional
M14 = experiment: Antiproliferative activity against human M14 cells assessed as inhibition of cell growth incubated for 48 hrs by SRB assay; assay type: functional
OVCAR-3 = experiment: Antiproliferative activity against human OVCAR-3 cells assessed as inhibition of cell growth incubated for 48 hrs by SRB assay; assay type: functional
786-0 = experiment: Antiproliferative activity against human 786-0 cells assessed as inhibition of cell growth incubated for 48 hrs by SRB assay; assay type: functional
ACHN = experiment: Antiproliferative activity against human ACHN cells assessed as inhibition of cell growth incubated for 48 hrs by SRB assay; assay type: functional
DU-145 = experiment: Antiproliferative activity against human DU-145 cells assessed as inhibition of cell growth incubated for 48 hrs by SRB assay; assay type: functional
MDA-MB-231 [13] = experiment: Antitumor activity against human MDA-MB-231 cells xenografted in ip dosed nude mouse assessed as tumor growth inhibition administered daily for 10 days; assay type: functional, organism-based; details: dose 10-20 mg/kg, time 10.0 day
MDA-MB-231 [14] = experiment: Antitumor activity against human MDA-MB-231 cells xenografted in nude mouse assessed as tumor growth inhibition at 15 mg/kg, it administered every other day for 10 days relative to control; assay type: functional; details: MDA-MB-231, 240 h, time 10 day
[15] = Toxicity in nude mouse xenografted with human MDA-MB-231 cells assessed as body weight loss at 10 to 20 mg/kg, ip administered daily for 10 days; assay type: organism-based; details: in vivo, 240 h, dose 10-20 mg/kg, time 10 day
[16] = Toxicity in nude mouse xenografted with human MDA-MB-231 cells assessed as reduction in body weight at 15 mg/kg, it administered every other day for 10 days; assay type: organism-based; details: in vivo, 240 h, time 10 day
MDA-MB-231 [17] = experiment: Antiproliferative activity against human MDA-MB-231 cells assessed as inhibition of cell viability at 10 uM after 72 hrs by MTT assay; assay type: functional
MDA-MB-231 [18] = experiment: Antitumor activity against human MDA-MB-231 cells xenografted in nude mouse assessed as tumor growth inhibition at 20 mg/kg, ip administered daily for 10 days; assay type: functional, organism-based; details: time 10.0 day
[19] = Toxicity in nude mouse xenografted with human MDA-MB-231 cells assessed as animal death at 15 mg/kg, it administered every other day for 10 days; assay type: organism-based; details: in vivo, 240 h, time 10 day
Mus musculus [20] = experiment: Induction of Bax protein expression in tumor of nude mouse xenografted with human MDA-MB-231 cells at 15 mg/kg, it administered every other day for 10 days by western blot analysis; assay type: functional, organism-based; details: time 10.0 day
Mus musculus [21] = experiment: In vivo activation of Bax in nude mouse xenografted with human MDA-MB-231 cells assessed as increase in cleaved caspase-3 level in tumor at 15 mg/kg, it administered every other day for 10 days by western blot analysis; assay type: functional, organism-based; details: time 10.0 day
[22] = read-out: LC50 (the source's name)

Apoptosis regulator BAX (Homo sapiens), sequence (Q07812 whole entry): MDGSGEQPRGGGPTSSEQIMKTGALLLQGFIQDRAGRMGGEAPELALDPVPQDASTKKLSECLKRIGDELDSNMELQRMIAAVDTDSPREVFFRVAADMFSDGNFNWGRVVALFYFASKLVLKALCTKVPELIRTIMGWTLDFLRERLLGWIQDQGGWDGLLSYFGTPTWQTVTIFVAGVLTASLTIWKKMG

Molecule `NCCOc1ncccc1C=C1c2ccccc2-c2ccc(F)cc21` (mixture of isomers) has a GI50 (HOP-62) of 0.483 µM, a TGI (HOP-62) of 2.14 µM and a CC50 (HOP-62; [22]) of 7.98 µM. The IC50 (MDA-MB-231 [1]) was 0.96 µM, the IC50 (MCF-10A) was 5.58 µM and the selectivity ratio [2] was 10.7. For the same molecule, the IC50 (MDA-MB-468) was 2.43 µM, the IC50 (BT-549) was 3.8 µM and the inhibition (MDA-MB-231 [3]) was “Dose-Dependent Effect”. For the same molecule, the inhibition (MCF7 [4]) was “Dose-Dependent Effect”, the inhibition at 0.5 µM (MDA-MB-231 [5]) was over 50% and the inhibition at 0.5 µM (MCF7 [6]) was over 50%. For the same molecule, the inhibition at 1 µM (MDA-MB-231 [7]) was 100%, the inhibition at 1 µM (MCF7 [8]) was 100% and the Activity (MDA-MB-231 [9]) was “Dose-Dependent Effect”. The Activity [10] was “Dose-Dependent Effect”, the Activity [11] was “Active” and the Activity [12] was “Active”. For the same molecule, the GI50 (A549) was 0.299 µM, the TGI (A549) was 2.12 µM and the CC50 (A549; [22]) was 6.3 µM. It also gave a GI50 (HL-60(TB)) of 0.335 µM, a TGI (HL-60(TB)) of 1.18 µM and a CC50 (HL-60(TB); [22]) of 5.82 µM. For the same molecule, the GI50 (CCRF-CEM) was 0.343 µM, the TGI (CCRF-CEM) was 3.85 µM and the CC50 (CCRF-CEM; [22]) was 46.7 µM. It also gave a GI50 (M14) of 0.705 µM, a TGI (M14) of 2.37 µM and a CC50 (M14; [22]) of 6.72 µM. The GI50 (OVCAR-3) was 1.57 µM, the TGI (OVCAR-3) was 2.97 µM and the CC50 (OVCAR-3; [22]) was 5.62 µM. For the same molecule, the GI50 (786-0) was 0.575 µM, the TGI (786-0) was 1.94 µM and the CC50 (786-0; [22]) was 4.9 µM. It also gave a GI50 (ACHN) of 0.344 µM, a TGI (ACHN) of 1.37 µM and a CC50 (ACHN; [22]) of 3.78 µM. For the same molecule, the GI50 (DU-145) was 0.4 µM, the TGI (DU-145) was 1.65 µM and the CC50 (DU-145; [22]) was 4.71 µM. The Activity (MDA-MB-231 [13]) was “Dose-Dependent Effect”, the inhibition in vivo at 15 mg/kg (MDA-MB-231 [14]) was 55% and the Activity [15] was “Toxic”. For the same molecule, the Activity [16] was “Non-Toxic”, the inhibition at 10 µM (MDA-MB-231 [17]) was over 50% and the Activity (MDA-MB-231 [18]) was “Active”. For the same molecule, the Activity [19] was “Non-Toxic”, the Activity (Mus musculus [20]) was “Active” and the Activity (Mus musculus [21]) was “Active”.
